Experimental data as given in the NIST ThermoML archive (doi:10.1021/je100821g).
Numbers after ± are expanded uncertainties.

What was measured:
[1] = Liquid; for viscosity / mass density: 101.33 kPa; for viscosity: Concentric cylinders viscometry; for mass density: Vibrating tube method
[2] = excess molar enthalpy (molar enthalpy of mixing); xn = mol fraction of the nth substance listed; conditions: 303 K, 101 kPa, Liquid, Calvet calorimetry
[3] = xn = mol fraction of the nth substance listed; conditions: 293.15 K, 101 kPa, Liquid; for viscosity: Concentric cylinders viscometry

ClC(Cl)Cl [trichloromethane]
[1]
Conditions	mass density [kg/m3]	vapor or sublimation pressure [kPa]	viscosity [mPa·s]
273.15 K	1526 ± 0.3	–	0.713
283.15 K	1507.1 ± 0.3	–	0.651
293.15 K	1488.4 ± 0.3	–	0.6
298.15 K	1478.8 ± 0.3	–	0.576
303.15 K	1469.2 ± 0.3	32.2 ± 0.36	0.552
313.15 K	1450 ± 0.3	–	0.509
318.15 K	1440 ± 0.3	–	0.491

COC(C)(C)C [2-methoxy-2-methylpropane]
[1]
Conditions	mass density [kg/m3]	vapor or sublimation pressure [kPa]	viscosity [mPa·s]
273.15 K	760.4 ± 0.3	–	0.39 ± 0.005
283.15 K	750.1 ± 0.3	–	0.36 ± 0.005
286.5 K	–	20 ± 0.2	–
291.3 K	–	25 ± 0.21	–
293.15 K	739.9 ± 0.3	–	0.333 ± 0.005
295.5 K	–	30 ± 0.22	–
298.15 K	734.4 ± 0.3	–	0.319 ± 0.005
299.2 K	–	35 ± 0.23	–
302.5 K	–	40 ± 0.19	–
303.15 K	729.2 ± 0.3	41 ± 0.44	0.304 ± 0.005
305.45 K	–	45 ± 0.28	–
308.2 K	–	50 ± 0.27	–
310.8 K	–	55 ± 0.29	–
313.1 K	–	60 ± 0.31	–
313.15 K	718.5 ± 0.3	–	0.278 ± 0.005
315.3 K	–	65 ± 0.32	–
317.4 K	–	70 ± 0.33	–
319.3 K	–	75 ± 0.35	–
321.1 K	–	80 ± 0.36	–
322.9 K	–	85 ± 0.38	–
324.5 K	–	90 ± 0.39	–
325.4 K	–	92.5 ± 0.38	–
326.2 K	–	95 ± 0.4	–
326.9 K	–	97.2 ± 0.4	–

ClC(Cl)Cl [trichloromethane] + COC(C)(C)C
Conditions	excess molar enthalpy [kcal/mol]	mass density [kg/m3]	viscosity [mPa·s]
[2], x1 = 0.038	-0.0817 ± 0.00813	–	–
[2], x1 = 0.068	-0.159 ± 0.0136	–	–
[2], x1 = 0.097	-0.22 ± 0.0213	–	–
[2], x1 = 0.101	-0.244 ± 0.0229	–	–
[2], x1 = 0.118	-0.263 ± 0.0213	–	–
[2], x1 = 0.154	-0.287 ± 0.0232	–	–
[2], x1 = 0.172	-0.311 ± 0.0239	–	–
[2], x1 = 0.219	-0.382 ± 0.0311	–	–
[2], x1 = 0.251	-0.454 ± 0.0359	–	–
[2], x1 = 0.39	-0.502 ± 0.0406	–	–
[2], x1 = 0.516	-0.502 ± 0.0406	–	–
[2], x1 = 0.669	-0.43 ± 0.0335	–	–
[2], x1 = 0.78	-0.359 ± 0.0287	–	–
[2], x1 = 0.864	-0.191 ± 0.0158	–	–
[2], x1 = 0.899	-0.155 ± 0.0127	–	–
[2], x1 = 0.931	-0.115 ± 0.0098	–	–
[2], x1 = 0.958	-0.0669 ± 0.00621	–	–
[2], x1 = 0.986	-0.0359 ± 0.0043	–	–
[2], x1 = 1	0 ± 0.000239	–	–
[3], x1 = 0.0527	–	768.1 ± 0.4	0.358 ± 0.005
[3], x1 = 0.0834	–	785.4 ± 0.4	0.372 ± 0.005
[3], x1 = 0.1841	–	842.6 ± 0.4	0.423 ± 0.005
[3], x1 = 0.2714	–	895.6 ± 0.3	0.47 ± 0.006
[3], x1 = 0.358	–	951.5 ± 0.3	0.514 ± 0.006
[3], x1 = 0.4511	–	1015 ± 0.3	0.56 ± 0.006
[3], x1 = 0.546	–	1083.8 ± 0.3	0.595 ± 0.006
[3], x1 = 0.6303	–	1148.9 ± 0.4	0.612 ± 0.007
[3], x1 = 0.724	–	1225.9 ± 0.4	0.62 ± 0.007
[3], x1 = 0.8108	–	1302.9 ± 0.5	0.618 ± 0.007
[3], x1 = 0.8948	–	1381.1 ± 0.6	0.613 ± 0.006
[3], x1 = 0.9515	–	1437.9 ± 0.7	0.609 ± 0.006
[3], x1 = 1	–	1488.4 ± 0.7	0.6 ± 0.006

COC(C)(C)C [2-methoxy-2-methylpropane] + ClC(Cl)Cl
x2 = 0
Conditions	excess molar enthalpy [kcal/mol]	mass density [kg/m3]	viscosity [mPa·s]
[2]	0 ± 0.000239	–	–
[3]	–	739.9 ± 0.4	0.333 ± 0.005
